Values quoted from earlier work, collected in US20260232690A1, “Treatment of the Chronic Effects of Brain Injury Using Rho Kinase Inhibitors” (WOOLSEY PHARMACEUTICALS, INC., priority 2023, published 2026).

System: salt-loaded hypertensive stroke-prone rats

SMILES: Cl.O=S(=O)(c1cccc2cnccc12)N1CCCNCC1 [Fasudil, 5-(1,4-Diazepane-1-sulfonyl) isoquinoline]
- nephrosclerosis: attenuate nephrosclerosis
- survival: improve survival
